The text below walks through data of patent EP4257135A1, “BENZIMIDAZOLE DERIVATIVES FOR PULMONARY ARTERIAL HYPERTENSION” (Justus-Liebig-Universität Gießen, priority 2022, dated 2023).

One assay deals with SuHx-PAH. The assay can be described thus: SUGEN5416/chronic hypoxia PAH rat model, right heart catheterisation and histology. The settings on record: SuHx-PAH rats, three times weekly for two weeks, intratracheal nebulisation 275 nmol/kg. The class given is in vivo, Ratten. From the text:
Um das therapeutische Potenzial der EP300/CREBBP-Hemmung in vivo weiter zu erforschen, haben die Erfinder Versuchstiere in drei verschiedenen Nagetiermodellen mit etablierter PAH mit der Substanz SGC-CBP30 behandelt, wobei SGC-CBP30 durch intra-tracheale Vernebelung über zwei Wochen lang dreimal wöchentlich verabreicht wurde. Es wurden folgende drei verschiedenen Nagetiermodelle für eine PAH (FHR-PAH, MCT-PAH und SuHx-PAH) getestet: • Fawn-hooded hypertensive Ratten (FHR): Das ist ein genetischer Rattenstamm, bei dem PAH im Alter spontan auftritt und der ähnliche PAH-Anomalien aufweist, wie sie bei IPAH bei Menschen nach 40 Wochen auftreten. • Durch Monocrotalin (MCT) induziertes PAH-Rattenmodell. • Ein SUGEN5416/chronische Hypoxie (SuHx)-Rattenmodell für PAH, bei dem die Ratten eine einmalige Injektion von SUGEN5416 erhielten und anschließend einer chronischen Hypoxie (10% O2) ausgesetzt wurden (SuHx-PAH).
Für die MCT-PAH wurden männlichen und weiblichen SD-Ratten (Sprague-Dawley-Ratten) subkutan 60 mg/kg MCT (Sigma, Katalog: C2401) injiziert, um PAH zu induzieren. Bei der SuHx-PAH erhielten SD-Ratten eine einmalige subkutane Injektion von SUGEN5416 (20 mg/kg) und wurden drei Wochen lang einer normobaren Hypoxie ausgesetzt, bevor sie für zwei Wochen an die Raumluft zurückkehrten. Zwei Wochen nach der MCT-Injektion bzw. drei Wochen nach der SUGEN5416-Injektion (sobald PAH festgestellt wurde) wurden die Ratten nach dem Zufallsprinzip in vier Gruppen eingeteilt und erhielten zwei Wochen lang dreimal wöchentlich entweder Vehikel (Verabreichung von 1 % Methylcellulose in destilliertem Wasser oder intratracheale Vernebelung von 4 % DMSO in PBS als Negativkontrolle), SGC-CBP30 (Verabreichung von 10 mg/kg in 1 % Methylcellulose + destilliertem Wasser) oder SGC-CBP30 (intratracheale Vernebelung von 275 nmol/kg in 4 % DMSO + PBS). Einjährige männliche und weibliche FHR-Ratten mit etablierter PAH wurden in dieselben vier Gruppen wie beim MCT-Modell eingeteilt und den selben Behandlungsmethoden unterzogen. Für die Vernebelung wurden die Ratten mit 3%igem Isofluran betäubt. Ein 16-Gauge-Katheter wurde in die Luftröhre eingeführt. Ein Vernebler (Aerogen) wurde an den Katheter angeschlossen, und für jede Behandlung wurde ein Volumen von 50 µl SGC-CBP30 oder dessen Vehikel (als Negativkontrolle) verabreicht. Nach zweiwöchiger Behandlung wurde eine Rechtsherzkatheteruntersuchung bei geschlossenem Thorax durchgeführt, um folgende hämodynamischen Daten zu erfassen: Systolischer Rechtsventrikulärer Druck (RVSP), mittlerer PA-Druck (mPAP), Herzzeitvolumen (CO) und Schlagvolumen (SV). Der Gesamtwiderstand der Lunge (TPR) wurde durch Division von mPAP durch CO ermittelt. Nach der hämodynamischen Messung wurden den Ratten Gewebeproben entnommen. Die Experimente wurden gemäß den Richtlinien des Canadian Council on Animal Care durchgeführt. Alle Protokolle wurden von der institutionellen Ethikkommission für Tiere (Tierschutzausschuss der Universität Laval) geprüft und genehmigt (Protokollnummer 2019-018-2). Alle Experimente folgten den Richtlinien für die präklinische Forschung bei PAH.
Der schwarze Balken zeigt 50 µm an. Die Daten sind als Mittelwert ± SD angegeben und die statistische Analyse wurde mit einem ungepaarten Student's t-Test durchgeführt. FHR, MCT und SU5416/chronische Hypoxie-Ratten: *P<0,05, **P<0,01 und ***P<0,001 gegenüber den mit Vehikel behandelten Gruppen. MCT-Rattenmodell: §P<0,05, §§P<0,01 und §§§P<0,001 gegenüber der unbehandelten Kontrollgruppe. • A: Schematische Darstellung des Versuchsaufbaus für die Behandlung von Fawn-hooded hypertensive Ratten (FHR) mit dem EP300/CREBBP-Inhibitor SGC-CBP30, der selektiv auf die Acetyltransferase EP300/CREBBP wirkt. […]

The subject of another assay is PAH-SMCs. The assay can be described thus: Apoptosis in PAH smooth muscle cells. Type of assay: cell-based, human. The settings on record: vs DMSO. The text has this: PAH-FBs wurden mit verschiedenen Konzentrationen der Substanz SGC-CBP30 oder dem Lösungsmittel DMSO inkubiert, um die Zellproliferation und die Induktion von Apoptose 24 Stunden danach zu untersuchen. Die Wirkung der selektiven EP300/CREBBP-Inhibition auf die Zellproliferation wurde durch den Einbau von BrdU (Bromodeoxyuridin, 5-Bromo-2'-Deoxyuridin, BUdR, BrdUrd, Broxuridine) bewertet. Die Wirkung der Substanz SGC-CBP30 oder des Lösungsmittels DMSO auf die Induktion von Apoptose wurde durch Cell Death Detection ELISAPLUS bewertet. Dabei zeigten sich deutliche Unterschiede zwischen der Substanz SGC-CBP30 und dem Lösungsmittel DMSO.
Das therapeutische Potenzial der EP300/CREBBP-Hemmung durch die Substanz SGC-CBP30 wurde untersucht. Dazu wurde die Wirksamkeit auf PAH-FBs und PAH-SMCs geprüft, die aus den Lungenarterien von menschlichen PAH-Patienten und aus den Lungenarterien von Ratten mit MCT-PAH (Rattenmodell mit Monocrotalin) isoliert wurden. […] Die Wirkung der EP300-Hemmung auf das vaskuläre Remodelling wurde durch Quantifizierung der prozentualen medialen Wanddicke in den mit der Substanz SGC-CBP30 inkubierten PCLS im Vergleich zu den mit DMSO inkubierten Kontrollen bewertet. Dabei zeigten sich deutliche Unterschiede zwischen der Substanz SGC-CBP30 und DMSO.

Where [1] appears, read: start three weeks after SUGEN5416.

On to `COc1ccc(CCc2nc3cc(-c4c(C)noc4C)ccc3n2C[C@H](C)N2CCOCC2)cc1Cl` [SGC-CBP30, 2-[2-(3-Chloro-4-methoxyphenyl)ethyl]-5-(3,5-dimethyl-1,2-oxazol-4-yl)-1-[(S)-2-(morpholin-4-yl)propyl]-1H-benzimidazole], for which, in the assay on SuHx-PAH (setting [1]), the RVSP entry was “signifikanten Senkung” and the mPAP result is reported as “signifikanten Senkung”. Further, in the assay with SuHx-PAH, the CO result was “verbesserte CO und SV auch bei SUGEN5416/chronischer Hypoxie-PAH signifikant”, the SV entry is given as “verbesserte CO und SV auch bei SUGEN5416/chronischer Hypoxie-PAH signifikant” and the “mediale Wanddicke der distalen PAs” value is listed as “signifikant verringert”. The TPR entry in the assay on SuHx-PAH (mPAP divided by CO) is given as “signifikanten Senkung”. Besides, in the assay with PAH-SMCs, the Apoptoserate result is “schwächte den hyperproliferativen Phänotyp und die Apoptoserate von PAH-FBs und PAH-SMCs deutlich ab”.
